What was measured:
[1] = test system: airway epithelial cells; conditions: cited from earlier work
[2] = test system: the cells; assay: Culture conditions described herein with upstream/downstream ROCK pathway inhibitor in place of a ROCK inhibitor; format: cell-based; conditions: used in the culture conditions in place of a ROCK inhibitor
Excerpt: As used herein, inhibiting ROCK can mean to reduce the activity, function, or expression of at least one of ROCK1 or ROCK2. […] In general, ROCK phosphorylates LEVI kinase and myosin light chain (MLC) phosphatase after being activated through binding of GTP-bound Rho. One embodiment of the present invention thus involves blocking the upstream pathway of ROCK1 and/or ROCK2, for example GTP-bound Rho, such that ROCK1 and/or ROCK2 is not activated or its activity is reduced over untreated cells. Other upstream effectors include, but are not limited to, integrins, growth factor receptors, including but not limited to, TGF-beta and EGFR, cadherins, G protein coupled receptors and the like. Another embodiment of the present invention thus involves blocking the activity, function, or expression of downstream effector molecules of activated ROCK1 and/or ROCK2 such that ROCK1 and/or ROCK2 cannot propagate any signal or can only propagate a reduced signal over untreated cells. Downstream effectors include, but are not limited to, myosin phosphatase-targeting protein (MYPT), vimentin, LIMK, myosin light chain kinase, NHE1, cofilin, Myosin II and the like.

Row | Compound | effect of inhibition on airway epithelial cells [1] | effect on cells (differentiation / proliferation in vitro) [2]
1 | O=S(=O)(c1cccc2cnccc12)N1CCCNCC1 [HA 1077, fasudil] | induces membrane ruffling, loss of actin stress fibers and apoptosis | 
2 | C3 transferase |  | allow the cells to bypass differentiation and allow proliferation in vitro
3 | Cc1ccc2c(c1)C(=O)C1(O)CCN(c3ccccc3)C1=N2 (stereo not shown) [blebbistatin] |  | allow the cells to bypass differentiation and allow proliferation in vitro
4 | C[C@@H](N)[C@H]1CC[C@H](C(=O)Nc2ccncc2)CC1 [Y-27632] | induces membrane ruffling, loss of actin stress fibers and apoptosis | 
